Results as given in patent US20030055007A1, “Antimicrobial agents” (priority 2001, published 2003).
≈ marks a conversion by molar mass, not a printed value. Like-named read-outs stand apart in the source and are kept apart here.

Key:
[1] = system: AIDS virus (HIV-1, HIV-2); test: Complete inhibitory activity against AIDS virus, MT-4 cells, 12-well microplate, 3- and 6-day culture; assay type: cell-based; settings: for lowest sample concentration (circle-marked well) at which AIDS virus growth was inhibited completely (100%): MT-4 cells, 2-fold dilutions from 1000 μg/ml
MT-4 cells [2] = system: MT-4 cells
MT-4 cells [3] = test: Cell damage caused by the sample in the AIDS virus microplate test; settings: for cell damage / cytotoxicity (in words): AIDS virus test
[4] = system: Influenza virus A/Hokkaidou/1/97 (H3N2); test: organism not typed; assay type: cell-based; settings: for MIC: read-out: Minimum inhibitory concentration (MIC)
[5] = system: Influenza virus A/Hokkaidou/1/96 (H1N1); test: organism not typed; assay type: cell-based; settings: for MIC: read-out: Minimum inhibitory concentration (MIC)
[6] = system: Influenza virus B/Hokkaidou/1/97; test: microbe, parasite or virus in culture; assay type: cell-based; settings: for MIC: unidentified influenza virus, read-out: Minimum inhibitory concentration (MIC)
[7] = oral; cited from earlier work
[8] = system: influenza virus (H1N1, H3N2, Type B); assay type: cell-based
S. Enteritidis = test: Antibacterial activity test (2), dilution on agar culture medium; assay type: cell-based; settings: 30° C., 17 hours, 1:40 = 2 mg/ml, <40-fold = no complete inhibition at 1:40
E. coli O157 = assay type: cell-based; settings: 30° C., 17 hours, 1:40 = 2 mg/ml, <40-fold = no complete inhibition at 1:40
K. pneumoniae = test: Antibacterial activity test (2), dilution on agar culture medium; assay type: cell-based; settings: 30° C., 17 hours, 1:40 = 2 mg/ml, <40-fold = no complete inhibition at 1:40
B. subtilis = test: as above; assay type: cell-based; settings: 30° C., 17 hours, 1:40 = 2 mg/ml, <40-fold = no complete inhibition at 1:40
P. aerginos = test: as above; assay type: cell-based; settings: 30° C., 17 hours, 1:40 = 2 mg/ml, <40-fold = no complete inhibition at 1:40
S. aureus = test: as above; assay type: cell-based; settings: 30° C., 17 hours, 1:40 = 2 mg/ml, <40-fold = no complete inhibition at 1:40
Procedure: Aqueous solutions of each specimen (powders) at a concentration of 8% was diluted 1:40 as the specimen stock solution for MIC measurement. The stock solution diluted at a graduation ratio of 1:40 to 1:400 and the stock solution were added to the agar culture medium on which 6 test […] were inoculated, and incubated at 30° C. for 17 hours. Growth inhibition bands were examined on the agar culture medium. The specimen stock solution was prepared by diluting 25 ml of 8% solution with 1000 cc of distilled water(1:40 dilution), which is converted into the amount per 2 mg/ml by solid content.
However, the remaining samples that were indicative of “<40-fold (lower than the 1:40 dilution)” were proven to have a certain degree of inhibitory effects. They are expected to show the complete inhibitory effects against the bacterial growth, by increasing the concentration level. As a consequence, the samples, 5, 6, 11-14 were recognized to have sufficient useful antibacterial activity.

influenza virus = settings: in vivo, po
[9] = H1N1, liquid samples, stock 10 μl/ml guaiacol, 2 μl/ml 2,6-dimethoxyphenol
[10] = H3N2, stock 10 mg/ml, read when virus multiplied to 100 TCID (3-4 days)
[11] = H1N1, stock 10 mg/ml, read when virus multiplied to 100 TCID (3-4 days)

COc1cc(C(O)C(CO)Oc2c(OC)cccc2OC)cc(OC)c1O (stereo not drawn) [SOS, syringylglycerol-β-syringyl ether, reference compound]
viral (inhibitory) activity against AIDS virus ([1]; 3rd day of culture): 15.6 μl/ml | cell damage (MT-4 cells [2]): 31.3 μl/ml

COc1cc(S(=O)(=O)[O-])ccc1O.COc1cc(S(=O)(=O)[O-])ccc1O.O.[K+].[K+] [guaiacol-4-sulfonate potassium salt 0.5-hydrate, reference compound]
cell damage / cytotoxicity (in words) (MT-4 cells [3]): caused cell damage | anti-AIDS virus activity (in words) ([1]; cell-level test): not to possess effective anti-AIDS virus activity

COc1ccccc1O [sample 1, Guaiacol]
Minimum inhibitory concentration (MIC) ([4]; H3N2, liquid samples, stock 10 μl/ml guaiacol, 2 μl/ml 2,6-dimethoxyphenol): 1.9 μl/ml | Minimum inhibitory concentration (MIC) [5, 9]: 3.8 μl/ml | Minimum inhibitory concentration (MIC) ([6]; Type B, liquid samples, stock 10 μl/ml guaiacol, 2 μl/ml 2,6-dimethoxyphenol): 3.8 μl/ml | concentration up to which cell damage was observed (MT-4 cells [3]; 3-day incubation): 250 µg/mL | concentration up to which cell damage was observed (MT-4 cells [3]; 6-day incubation): 250 µg/mL | lowest sample concentration (circle-marked well) at which AIDS virus growth was inhibited completely (100%) ([1]; 3-day culture): ◯ (31.3) μg/ml | lowest sample concentration (circle-marked well) at which AIDS virus growth was inhibited completely (100%) ([1]; 3-day culture, listed as guaiacol): 31.3 µg/mL | lowest sample concentration (circle-marked well) at which AIDS virus growth was inhibited completely (100%) ([1]; 6-day culture): ◯ (125) μg/ml | lowest sample concentration (circle-marked well) at which AIDS virus growth was inhibited completely (100%) ([1]; 6-day culture, listed as guaiacol): 125 µg/mL | toxicity level in a human (ORL-HMN) [7]: 43 mg/kg

COc1cccc(OC)c1O [sample 3, 2,6-dimethoxyphenol]
Minimum inhibitory concentration (MIC) [5, 9]: > 1.0 μl/ml | effect against influenza virus (in words) [8]: not effective | lowest sample concentration (circle-marked well) at which AIDS virus growth was inhibited completely (100%) ([1]; 3-day culture): ◯ (31.3) μg/ml | lowest sample concentration (circle-marked well) at which AIDS virus growth was inhibited completely (100%) ([1]; 6-day culture): ◯ (31.3) μg/ml

COc1cc(O)cc(OC)c1 [sample 4, 3,5-dimethoxyphenol]
MIC [4, 10]: 1900 µg/mL (≈ 12.3 mM) | MIC [5, 11]: 5000 µg/mL (≈ 32.4 mM) | MIC ([6]; Type B, stock 10 mg/ml, read when virus multiplied to 100 TCID (3-4 days)): 3800 µg/mL (≈ 24.6 mM) | well up to which cell damage was observed (MT-4 cells [3]; 6-day incubation, well number): 3 (250) | cell damage when 3,4-dimethoxyphenol was added to the sample (MT-4 cells [3]; ratio of 1:1, anti-viral effect not reduced): only in the first well | lowest sample concentration (circle-marked well) at which AIDS virus growth was inhibited completely (100%) ([1]; 3-day culture): ◯ (125) μg/ml | lowest sample concentration (circle-marked well) at which AIDS virus growth was inhibited completely (100%) ([1]; 6-day culture): ◯ (125) μg/ml | lowest sample concentration (circle-marked well) at which AIDS virus growth was inhibited completely (100%) ([1]; 6-day culture, listed as 3,5-dimethoxyphenol): 125 µg/mL

COc1cc(C(O)C(CO)Oc2ccccc2OC)ccc1OCc1ccccc1 (stereo not drawn) [sample 12, 4-benzyloxyguaiacylglycerol-β-guaiacylether]
Minimum inhibitory concentration (MIC) [4, 10]: 2.5 mg/mL (≈ 6.09 mM) | Minimum inhibitory concentration (MIC) [5, 11]: 8.0 mg/mL (≈ 19.5 mM) | Minimum inhibitory concentration (MIC) [6]: 2.5 mg/mL (≈ 6.09 mM) | dilution of 8% solution giving complete growth inhibition (S. Enteritidis): <40-fold | dilution of 8% solution giving complete growth inhibition (E. coli O157): <40-fold | dilution of 8% solution giving complete growth inhibition (K. pneumoniae): <40-fold | viral (inhibitory) activity against AIDS virus ([1]; 6th day of culture): 125 μl/ml | dilution of 8% solution giving complete growth inhibition (B. subtilis): <40-fold | dilution of 8% solution giving complete growth inhibition (P. aerginos): <40-fold | dilution of 8% solution giving complete growth inhibition (S. aureus): <40-fold

COc1cc(C=O)cc(OC)c1O [sample 13, Syringaldehyde]
MIC [4]: 1900 µg/mL (≈ 10.4 mM) | MIC [5]: 3800 µg/mL (≈ 20.9 mM) | MIC [6]: 3800 µg/mL (≈ 20.9 mM) | dilution of 8% solution giving complete growth inhibition (S. Enteritidis): <40 fold | cell damage / cytotoxicity (in words) (MT-4 cells [3]): severe cell damage | dilution of 8% solution giving complete growth inhibition (E. coli O157): <40-fold | dilution of 8% solution giving complete growth inhibition (K. pneumoniae): <40-fold | lowest sample concentration (circle-marked well) at which AIDS virus growth was inhibited completely (100%) ([1]; 6-day culture): 3.91 µg/mL | dilution of 8% solution giving complete growth inhibition (B. subtilis): <40-fold | dilution of 8% solution giving complete growth inhibition (P. aerginos): <40-fold | dilution of 8% solution giving complete growth inhibition (S. aureus): <40-fold

Lignosulfonic acid sodium salt [sample 5]
cell damage (MDCK cells): not seen

Lignosulfonic acid sodium salt acetate [sample 6]
side effects (influenza virus): not seen | cell damage (MDCK cells): not seen
